Data as given in PubChem BioAssay AID248 (DTP/NCI, 2004).
Values joined by “and” are separate entries in the source; they are usually repeats but may differ in a detail not shown here. Equal entries are not always repeated. Inconclusive results and toxic doses are left out. Rule as the data show it: active = T/C of 150% or more; inactive = T/C below 125%.

Test system: L1210 leukemia ip in BDF1 mice, survival T/C
Assay: NCI In Vivo Anticancer Drug Screen. Data for tumor model L1210 Leukemia (intraperitoneal) in B6D2F1 (BDF1) mice
Settings: endpoint: mean survival time, higher = longer survival
Outline: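 Antitumor effect is assessed in tumor-bearing animals. Survival in the compound arm is compared with a vehicle-dosed control arm and expressed as their quotient.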

[1] = dose: 100.0 mg/kg/injection, schedule: Q01DX009 (ip), vehicle: Klucel (hydroxypropylcellulose) (HPC)
[2] = dose: 100.0 mg/kg/injection, schedule: Q04DX003 (ip), vehicle: Klucel (hydroxypropylcellulose) (HPC)
[3] = dose: 200.0 mg/kg/injection, schedule: Q04DX003 (ip), vehicle: Klucel (hydroxypropylcellulose) (HPC)
[4] = dose: 400.0 mg/kg/injection, schedule: Q04DX003 (ip), vehicle: Klucel (hydroxypropylcellulose) (HPC)
[5] = dose: 100.0 mg/kg/injection, schedule: Q04DX003 (ip), vehicle: saline
[6] = dose: 200.0 mg/kg/injection, schedule: Q04DX003 (ip), vehicle: saline
[7] = dose: 25.0 mg/kg/injection, schedule: Q01DX009 (ip), vehicle: saline with Tween-80
[8] = dose: 50.0 mg/kg/injection, schedule: Q01DX009 (ip), vehicle: saline with Tween-80
[9] = dose: 100.0 mg/kg/injection, schedule: Q01DX009 (ip), vehicle: saline with Tween-80
[10] = dose: 200.0 mg/kg/injection, schedule: Q01DX009 (ip), vehicle: saline with Tween-80
[11] = dose: 200.0 mg/kg/injection, schedule: Q01DX009 (ip), vehicle: Klucel (hydroxypropylcellulose) (HPC)

Measured: T/C

N#Cc1cscc1C#N
inactive: dose: 12.5 mg/kg/injection, schedule: Q01DX009 (ip), vehicle: Klucel (hydroxypropylcellulose) (HPC) 96 % of control | dose: 25.0 mg/kg/injection, schedule: Q01DX009 (ip), vehicle: Klucel (hydroxypropylcellulose) (HPC) 92 % of control | dose: 50.0 mg/kg/injection, schedule: Q01DX009 (ip), vehicle: Klucel (hydroxypropylcellulose) (HPC) 97 % of control | [1] 88 % of control | [2] 111 % of control | [3] 100 % of control | [4] 104 % of control

NC(=O)NOCC(N)C(=O)O (stereo not drawn)
inactive: [5] 102 % of control | [6] 102 % of control | dose: 400.0 mg/kg/injection, schedule: Q04DX003 (ip), vehicle: saline 97 % of control

O=C1c2ccccc2C(=O)N1c1c2ccccc2cc2ccccc12
inactive: dose: 100.0 mg/kg/injection, schedule: Q04DX003 (ip), vehicle: saline sonified 98 % of control | dose: 200.0 mg/kg/injection, schedule: Q04DX003 (ip), vehicle: saline sonified 95 % of control | dose: 400.0 mg/kg/injection, schedule: Q04DX003 (ip), vehicle: saline sonified 95 % of control

CSC(=N)c1cccc(OCCCOc2ccccc2)c1
inactive: [7] 94 % of control | [8] 90 % of control | [9] 90 % of control | [10] 88 % of control

CCC(C(=O)c1ccc(Cl)cc1)C(O)(C(F)(F)F)C(F)(F)F (stereo not drawn)
inactive: dose: 100.0 mg/kg/injection, schedule: Q01DX001 (ip), vehicle: Klucel (hydroxypropylcellulose) (HPC) 95 % of control | [2] 102 % of control | dose: 200.0 mg/kg/injection, schedule: Q01DX001 (ip), vehicle: Klucel (hydroxypropylcellulose) (HPC) 98 % of control | [3] 98 % of control | dose: 400.0 mg/kg/injection, schedule: Q01DX001 (ip), vehicle: Klucel (hydroxypropylcellulose) (HPC) 112 % of control | [4] 93 % of control

Cc1ccc(C)c2c(CC(=O)O)c[nH]c12
inactive: dose: 100.0 mg/kg/injection, schedule: Q01DX001 (ip), vehicle: saline with Tween-80 100 % of control | dose: 200.0 mg/kg/injection, schedule: Q01DX001 (ip), vehicle: saline with Tween-80 107 % of control | dose: 400.0 mg/kg/injection, schedule: Q01DX001 (ip), vehicle: saline with Tween-80 102 % of control

CC1(O)Cn2c(nc3nccnc32)S1 (stereo not drawn)
inactive: dose: 25.0 mg/kg/injection, schedule: Q01DX009 (ip), vehicle: saline 100 % of control | dose: 50.0 mg/kg/injection, schedule: Q01DX009 (ip), vehicle: saline 96 % of control | dose: 100.0 mg/kg/injection, schedule: Q01DX009 (ip), vehicle: saline 94 % of control | [5] 100 % of control | [6] 96 % of control

Cc1ccc(Cl)cc1NC(=S)N(C)C
inactive: dose: 100.0 mg/kg/injection, schedule: Q04DX002 (ip), vehicle: saline with Tween-80 98 % of control | dose: 200.0 mg/kg/injection, schedule: Q04DX002 (ip), vehicle: saline with Tween-80 98 % of control

COCC(=O)CC(C)=O
inactive: [1] 98 % of control | [2] 100 % of control | [11] 106 % of control | [3] 95 % of control | dose: 400.0 mg/kg/injection, schedule: Q01DX009 (ip), vehicle: Klucel (hydroxypropylcellulose) (HPC) 101 % of control | [4] 101 % of control

O=[N+]([O-])c1ccc(S(=O)(=O)CC(Cl)c2ccccc2)cc1 (stereo not drawn)
inactive: dose: 100.0 mg/kg/injection, schedule: Q01DX001 (ip), vehicle: saline 102 % of control | dose: 100.0 mg/kg/injection, schedule: Q01DX009 (ip), vehicle: acetone 86 % of control | dose: 200.0 mg/kg/injection, schedule: Q01DX001 (ip), vehicle: saline 107 % of control | dose: 200.0 mg/kg/injection, schedule: Q01DX009 (ip), vehicle: acetone 94 % of control | dose: 400.0 mg/kg/injection, schedule: Q01DX001 (ip), vehicle: saline 110 % of control | dose: 400.0 mg/kg/injection, schedule: Q01DX009 (ip), vehicle: acetone 96 % of control

COc1ccc(NC(=O)Oc2ccc(Br)cc2Br)c(OC)c1
inactive: [1] 108 % of control | [11] 113 % of control

COC(=O)c1cc(NC(=O)Nc2cccc(C(F)(F)F)c2)cc(C(=O)OC)c1
inactive: [9] 100 % of control | [10] 92 % of control | dose: 400.0 mg/kg/injection, schedule: Q01DX009 (ip), vehicle: saline with Tween-80 96 % of control

COc1cc([C@@H]2c3cc4c(cc3[C@H](O)[C@H]3COC(=O)[C@H]23)OCO4)cc(OC)c1OC
inactive: dose: 0.14 mg/kg/injection, schedule: Q01DX Z (ip), vehicle: carboxymethylcellulose (CMC) 95 % of control | dose: 0.27 mg/kg/injection, schedule: Q01DX Z (ip), vehicle: carboxymethylcellulose (CMC) 101 % of control | dose: 0.54 mg/kg/injection, schedule: Q01DX Z (ip), vehicle: carboxymethylcellulose (CMC) 108 % of control | dose: 1.08 mg/kg/injection, schedule: Q01DX Z (ip), vehicle: carboxymethylcellulose (CMC) 105 % of control and 120 % of control | dose: 1.62 mg/kg/injection, schedule: Q01DX Z (ip), vehicle: carboxymethylcellulose (CMC) 110 % of control | dose: 2.16 mg/kg/injection, schedule: Q01DX Z (ip), vehicle: carboxymethylcellulose (CMC) 95 % of control | dose: 15.0 mg/kg/injection, schedule: Q01DX001 (ip), vehicle: carboxymethylcellulose (CMC) 117 % of control | dose: 30.0 mg/kg/injection, schedule: Q01DX001 (ip), vehicle: carboxymethylcellulose (CMC) 111 % of control | dose: 60.0 mg/kg/injection, schedule: Q01DX001 (ip), vehicle: carboxymethylcellulose (CMC) 88 % of control

CCN(CCS)Cc1ccccc1
inactive: [7] 95 % of control | dose: 25.0 mg/kg/injection, schedule: Q04DX003 (ip), vehicle: saline with Tween-80 94 % of control | [8] 97 % of control | dose: 50.0 mg/kg/injection, schedule: Q04DX003 (ip), vehicle: saline with Tween-80 91 % of control | [9] 95 % of control | dose: 100.0 mg/kg/injection, schedule: Q04DX003 (ip), vehicle: saline with Tween-80 91 % of control

C=CCc1ccccc1OC
inactive: [9] 102 % of control | [10] 95 % of control

O=C(OC1CCC1)c1ccc(N=Nc2ccccc2)cc1
inactive: dose: 75.0 mg/kg/injection, schedule: Q04DX002 (ip), vehicle: Klucel (hydroxypropylcellulose) (HPC) 102 % of control | dose: 150.0 mg/kg/injection, schedule: Q04DX002 (ip), vehicle: Klucel (hydroxypropylcellulose) (HPC) 102 % of control | dose: 300.0 mg/kg/injection, schedule: Q04DX002 (ip), vehicle: Klucel (hydroxypropylcellulose) (HPC) 86 % of control

Cc1ccc(OC(=O)NC(C)(C)C)cc1
inactive: dose: 100.0 mg/kg/injection, schedule: Q04DX002 (ip), vehicle: Klucel (hydroxypropylcellulose) (HPC) 105 % of control | dose: 200.0 mg/kg/injection, schedule: Q04DX002 (ip), vehicle: Klucel (hydroxypropylcellulose) (HPC) 109 % of control | dose: 400.0 mg/kg/injection, schedule: Q04DX002 (ip), vehicle: Klucel (hydroxypropylcellulose) (HPC) 105 % of control
